Measured values: PubChem BioAssay (NCI)
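Assay format: 96-well plates, 48-hour exposure. GI50 is the concentration that inhibits growth by half. Definition used: TGI = concentration required for complete inhibition of growth.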

Columns and labels:
Assay in all cases: NCI-60 cell line screen, 48 h
[1] = tested on: OVCAR-4 ovarian
[2] = tested on: CAKI-1 renal
[3] = tested on: 786-0 renal
[4] = tested on: NCI-H23 lung
[5] = tested on: UACC-257 melanoma
[6] = tested on: HL-60(TB) leukemia
[7] = tested on: SF-539 CNS
[8] = tested on: A498 renal
[9] = tested on: MALME-3M melanoma
[10] = tested on: MOLT-4 leukemia
[11] = tested on: SF-295 CNS
[12] = tested on: OVCAR-5 ovarian
[13] = tested on: K-562 leukemia
[14] = tested on: SK-MEL-2 melanoma
[15] = tested on: HOP-62 NSCLC
[16] = tested on: SF-268 CNS
[17] = tested on: SK-MEL-5 melanoma
[18] = tested on: EKVX NSCLC
[19] = tested on: TK-10 renal
[20] = tested on: HCT-116 colon
[21] = tested on: SK-OV-3 ovarian
[22] = tested on: SK-MEL-28 melanoma
[23] = tested on: SNB-19 CNS
[24] = tested on: RPMI-8226 leukemia
[25] = tested on: OVCAR-8 ovarian
[26] = tested on: MDA-MB-468 breast
[27] = tested on: A549 NSCLC
[28] = tested on: NCI-H522 lung
[29] = tested on: UO-31 renal
[30] = tested on: CCRF-CEM leukemia
[31] = tested on: LOX IMVI melanoma
[32] = tested on: MDA-MB-435
[33] = tested on: SN12C renal
[34] = tested on: M14 melanoma
[35] = tested on: SR leukemia
[36] = tested on: SW-620 colon
[37] = tested on: HCC-2998 colon
[38] = tested on: HS 578T breast
[39] = tested on: PC-3 prostate
[40] = tested on: MCF7 breast
[41] = tested on: HOP-92 NSCLC
[42] = tested on: IGROV1 ovarian
[43] = tested on: COLO 205 colon
[44] = tested on: HCT-15 colon
[45] = tested on: HT29 colon
[46] = tested on: NCI-H226 lung
[47] = tested on: NCI-H460 lung
[48] = tested on: BT-549 breast
[49] = tested on: UACC-62 melanoma
[50] = tested on: OVCAR-3 ovarian
[51] = tested on: DU-145 prostate
[52] = tested on: U251 CNS
[53] = tested on: RXF 393 renal
[54] = tested on: KM12 colon
[55] = tested on: T-47D breast
[56] = tested on: ACHN renal
[57] = tested on: MDA-MB-231 breast

## COc1ccc(-c2cc(-c3cc(OC)c(OC)c(OC)c3)[nH]c(=O)c2C#N)cc1
[1]
  GI50: 4.24 µM
  TGI: 29.8 µM
[2]
  GI50: 6.96 µM
  TGI: 31.4 µM
[3]
  GI50: 4.88 µM
  TGI: 20.1 µM
[4]
  GI50: 18.9 µM
  TGI: 62.1 µM
[5]
  GI50: 76.6 µM
  TGI: > 100 µM
[6]
  GI50: > 100 µM
  TGI: > 100 µM
[7]
  GI50: 5.79 µM
  TGI: 20.2 µM
[8]
  GI50: 3.81 µM
  TGI: 23.4 µM
[9]
  GI50: 19.3 µM
  TGI: 97.3 µM
[10]
  GI50: > 100 µM
  TGI: > 100 µM
[11]
  GI50: 12.3 µM
  TGI: 32.3 µM
[12]
  GI50: > 100 µM
  TGI: > 100 µM
[13]
  GI50: > 100 µM
  TGI: > 100 µM
[14]
  GI50: 14.6 µM
  TGI: 30.8 µM
[15]
  GI50: 7.08 µM
  TGI: 24.1 µM
[16]
  GI50: 16.9 µM
  TGI: 79.5 µM
[17]
  GI50: 17.1 µM
  TGI: 64.7 µM
[18]
  GI50: 21.3 µM
  TGI: > 100 µM
[19]
  GI50: 19.8 µM
  TGI: > 100 µM
[20]
  GI50: 55.9 µM
  TGI: > 100 µM
[21]
  GI50: 7.52 µM
  TGI: 26.7 µM
[22]
  GI50: 46 µM
  TGI: > 100 µM
[23]
  GI50: 6.4 µM
  TGI: 35.8 µM
[24]
  GI50: > 100 µM
  TGI: > 100 µM
[25]
  GI50: 4.3 µM
  TGI: 22.4 µM
[26]
  GI50: 17.8 µM
  TGI: 47 µM
[27]
  GI50: 14 µM
  TGI: > 100 µM
[28]
  GI50: 20.3 µM
  TGI: 64.4 µM
[29]
  GI50: 3.54 µM
  TGI: 25.2 µM
[30]
  GI50: > 100 µM
  TGI: > 100 µM
[31]
  GI50: 14 µM
  TGI: 47.4 µM
[32]
  GI50: > 100 µM
  TGI: > 100 µM
[33]
  GI50: 3.8 µM
  TGI: 61.6 µM
[34]
  GI50: > 100 µM
  TGI: > 100 µM
[35]
  GI50: > 100 µM
  TGI: > 100 µM
[36]
  GI50: 71.8 µM
  TGI: > 100 µM
[37]
  GI50: > 100 µM
  TGI: > 100 µM
[38]
  GI50: 5.67 µM
  TGI: 56.8 µM
[39]
  GI50: 25.5 µM
  TGI: > 100 µM
[40]
  GI50: 23.8 µM
  TGI: > 100 µM
[41]
  GI50: 1970 nM
  TGI: 8.17 µM
[42]
  GI50: 15.1 µM
  TGI: 76.3 µM
[43]
  GI50: > 100 µM
  TGI: > 100 µM
[44]
  GI50: 96.3 µM
  TGI: > 100 µM
[45]
  GI50: 71.6 µM
  TGI: > 100 µM
[46]
  GI50: 5.6 µM
  TGI: 24.9 µM
[47]
  GI50: 12.9 µM
  TGI: 44.3 µM
[48]
  GI50: 16.5 µM
  TGI: 48 µM
[49]
  GI50: 27.2 µM
  TGI: > 100 µM
[50]
  GI50: 62.7 µM
  TGI: > 100 µM
[51]
  GI50: 88.1 µM
  TGI: > 100 µM
[52]
  GI50: 4.48 µM
  TGI: 22.4 µM
[53]
  GI50: 2350 nM
  TGI: 12.1 µM
[54]
  GI50: > 100 µM
  TGI: > 100 µM
[55]
  GI50: 7.72 µM
  TGI: > 100 µM
[56]
  GI50: 9.76 µM
  TGI: 32.2 µM
[57]
  GI50: 3.76 µM
  TGI: 18.4 µM
